In patent publication US20250388565A1, “ESTROGEN RECEPTOR ALPHA DEGRADERS AND METHODS OF USE THEREOF” (Relay Therapeutics, Inc., priority 2022, published 2025):

target: T1, ERα protein (HiBiT-tagged) in ESR1_HiBiT KI MCF7 cells (Homo sapiens, UniProt P03372); test: Nano Glo HiBiT Lytic Degradation Assay; format: cell-based; conditions: 6 hours with compound, 14-point dose response 1:3, bell-shape curve fit, half-maximal effect of first Hill model, read-out: MCF7 ESR1 HiBiT - (DC50)
T1 sequence (P03372 1-595): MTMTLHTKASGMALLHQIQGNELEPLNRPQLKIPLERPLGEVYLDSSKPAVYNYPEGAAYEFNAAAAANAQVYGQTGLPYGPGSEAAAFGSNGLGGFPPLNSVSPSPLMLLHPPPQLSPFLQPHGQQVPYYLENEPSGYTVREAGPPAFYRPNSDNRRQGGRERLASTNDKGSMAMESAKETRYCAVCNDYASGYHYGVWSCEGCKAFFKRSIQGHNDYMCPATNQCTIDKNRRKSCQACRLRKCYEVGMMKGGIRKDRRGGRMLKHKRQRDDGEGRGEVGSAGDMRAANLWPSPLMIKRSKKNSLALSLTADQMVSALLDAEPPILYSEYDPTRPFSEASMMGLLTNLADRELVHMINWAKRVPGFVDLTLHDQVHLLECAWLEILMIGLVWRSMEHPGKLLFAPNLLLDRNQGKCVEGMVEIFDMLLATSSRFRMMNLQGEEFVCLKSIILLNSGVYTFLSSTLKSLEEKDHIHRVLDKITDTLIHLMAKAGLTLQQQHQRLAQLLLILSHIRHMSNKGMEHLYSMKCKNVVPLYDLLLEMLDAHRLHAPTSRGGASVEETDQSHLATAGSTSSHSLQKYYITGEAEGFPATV
In short: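 HiBiT-tagged endogenous ERα remaining in MCF7 knock-in cells was quantified by lytic luminescence after a 6 h treatment. DC50 values derive from a bell-shaped curve, taken at the first Hill component's half-maximal effect.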

| Structure (SMILES) | DC50 [nM] |
| --- | --- |
| O=C1CC[C@H](N2Cc3cc(N4CCN(CC5CCN(c6ccc([C@H]7c8ccc(O)cc8CO[C@H]7C7CC7)cc6)CC5)CC4)ccc3C2=O)C(=O)N1 (single isomer, unassigned) [Compound I-243] | 3 |
| O=C1CCC(c2ccc(N3CCN(CCC4CCN(c5ccc([C@H]6c7ccc(O)cc7CC[C@H]6c6ccccc6)cc5)CC4)CC3)cc2)C(=O)N1 (single isomer, unassigned) [Compound I-42] | ≥ 10000 |
| O=C1CC[C@H](N2Cc3cc(N4CCN(CC5CCN(c6ccc([C@@H]7c8ccc(O)cc8C(F)(F)C[C@@H]7c7ccc(F)cc7F)cc6)CC5)CC4)ccc3C2=O)C(=O)N1 [Compound I-318, (S)-3-(5-(4-((1-(4-((1R,2S)-2-(2,4-difluorophenyl)-4,4-difluoro-6-hydroxy-1,2,3,4-tetrahydronaphthalen-1-yl)phenyl)piperidin-4-yl)methyl)piperazin-1-yl)-1-oxoisoindolin-2-yl)piperidine-2,6-dione] | 0.33 |
| Cc1cc(N2CCC(CN3CCN(c4ccc5c(c4)CN([C@H]4CCC(=O)NC4=O)C5=O)CC3)CC2)ccc1[C@H]1c2ccc(O)cc2CC[C@H]1C1CCCCC1 [Compound I-140, (S)-3-(5-(4-((1-(4-((1S,2S)-2-cyclohexyl-6-hydroxy-1,2,3,4-tetrahydronaphthalen-1-yl)-3-methylphenyl)piperidin-4-yl)methyl)piperazin-1-yl)-1-oxoisoindolin-2-yl)piperidine-2,6-dione] | ≥ 10000 |
| O=C1CC[C@H](N2Cc3cc(N4CCN(CC5CCN(c6ccc([C@@H]7c8ccc(O)cc8CO[C@@H]7CC7CCCC7)cc6)CC5)CC4)ccc3C2=O)C(=O)N1 (single isomer, unassigned) [Compound I-232] | 0.92 |
| O=C1CCC(c2ccc(N3CCN(CC4CCN(c5ccc([C@H]6c7ccc(O)cc7CC[C@H]6c6ccccc6)cc5)CC4)CC3)cc2)C(=O)N1 (stereo partly drawn) [Compound I-11, 3-[4-[4-[[1-[4-[(1S,2R)-6-hydroxy-2-phenyl-tetralin-1-yl]phenyl]-4-piperidyl]methyl]piperazin-1-yl]phenyl]piperidine-2,6-dione] | ≥ 10000 |
| Cn1nc(C2CCC(=O)NC2=O)c2ccc(N3CCN(CC4CCN(c5ccc([C@@H]6c7ccc(O)cc7CO[C@@H]6c6ccccc6)cc5)CC4)CC3)cc21 (stereo partly drawn) [Compound I-393, 3-[6-[4-[[1-[4-[(3S,4R)-7-hydroxy-3-phenyl-isochroman-4-yl]phenyl]-4-piperidyl]methyl]piperazin-1-yl]-1-methyl-indazol-3-yl]piperidine-2,6-dione] | 0.36 |
| Cc1cc(F)c([C@H]2CC(F)(F)c3cc(O)ccc3[C@H]2c2ccc(N3CCC(CN4CCN(c5ccc6c(c5)CN([C@H]5CCC(=O)NC5=O)C6=O)CC4)CC3)cc2)cc1F (single isomer, unassigned) [Compound I-324] | 0.56 |
| CC(C)C[C@@H]1OCc2cc(O)ccc2[C@H]1c1ccc(N2CCC(CN3CCN(c4ccc5c(c4)CN([C@H]4CCC(=O)NC4=O)C5=O)CC3)CC2)cc1 (single isomer, unassigned) [Compound I-222] | 0.32 |
| COc1ccc2c(c1)CC[C@H](c1ccccc1)[C@@H]2c1ccc(N2CCC(CN3CCN(c4ccc5c(c4)CN([C@H]4CCC(=O)NC4=O)C5=O)CC3)CC2)cc1 [II-59] | ≥ 10000 |
| CC(C)[C@@H]1OCc2cc(O)ccc2[C@@H]1c1ccc(N2CCC(CN3CCN(c4ccc5c(c4)CN([C@H]4CCC(=O)NC4=O)C5=O)CC3)CC2)cc1 (single isomer, unassigned) [Compound I-226] | 59 |
| O=C1CC[C@H](N2Cc3cc(N4CCN(CC5CCN(c6ccc(C7c8ccc(O)cc8CCC7C7CCCCC7)cn6)CC5)CC4)ccc3C2=O)C(=O)N1 (stereo in doubt) [Compound I-154, (S)-3-(5-(4-((1-(5-((1S,2R)-2-cyclohexyl-6-hydroxy-1,2,3,4-tetrahydronaphthalen-1-yl)pyridin-2-yl)piperidin-4-yl)methyl)piperazin-1-yl)-1-oxoisoindolin-2-yl)piperidine-2,6-dione] | 3300 |
| O=C1CCC(c2ccc(N3CCN(C4CCN(c5ccc([C@H]6c7ccc(O)cc7CC[C@H]6c6ccccc6)cc5)CC4)CC3)cc2)C(=O)N1 (single isomer, unassigned) [Compound I-41] | 370 |
| O=C1CCC(n2cc3cc(N4CCN(CC5CCN(c6ccc([C@@H]7c8ccc(O)cc8CO[C@@H]7c7ccccc7)cc6)CC5)CC4)ccc3n2)C(=O)N1 (stereo partly drawn) [Compound I-397, 3-(5-(4-((1-(4-((3S,4R)-7-hydroxy-3-phenylisochroman-4-yl)phenyl)piperidin-4-yl)methyl)piperazin-1-yl)-2H-indazol-2-yl)piperidine-2,6-dione] | 0.61 |
| O=C1CC[C@H](N2Cc3cc(N4CCN(CC5CCN(c6c(F)cc([C@@H]7c8ccc(O)cc8CC[C@@H]7c7ccccc7)cc6F)CC5)CC4)ccc3C2=O)C(=O)N1 [II-84] | 0.8 |
| O=C1CC[C@H](N2Cc3cc(N4CCN(C5CCN(c6ccc([C@H]7c8ccc(O)cc8CC[C@H]7c7ccccc7)cc6)CC5)CC4)ccc3C2=O)C(=O)N1 [II-30] | 100 |
| O=C1CCN(c2ccc(N3CCC4(CCN(CC5CCN(c6ccc([C@@H]7c8ccc(O)cc8CO[C@@H]7c7ccccc7)cc6)CC5)C4)CC3)cc2)C(=O)N1 [Compound I-391, 1-(4-(2-((1-(4-((3S,4R)-7-hydroxy-3-phenylisochroman-4-yl)phenyl)piperidin-4-yl)methyl)-2,8-diazaspiro[4.5]decan-8-yl)phenyl)dihydropyrimidine-2,4 (1H,3H)-dione] | 0.42 |
| O=C1CC[C@H](N2Cc3cc(N4CCN(CC5CCN(c6ccc([C@@H]7c8ccc(O)cc8CC[C@@H]7c7ccccc7)c(F)c6)CC5)CC4)ccc3C2=O)C(=O)N1 [II-86] | 0.61 |
| O=C1CC[C@H](c2ccc(N3CCC4(CCN(CC5CCN(c6ccc([C@@H]7c8ccc(O)cc8C(F)(F)C[C@@H]7c7ccccc7)cc6)CC5)C4)CC3)cc2)C(=O)N1 (single isomer, unassigned) [Compound I-285] | 0.27 |
| O=C1CC[C@H](N2Cc3cc(N4CCN(CC5CCN(c6ccc([C@@H]7c8ccc(O)cc8C(F)(F)C[C@@H]7c7ccccc7)nc6)CC5)CC4)ccc3C2=O)C(=O)N1 [Compound I-203, (S)-3-(5-(4-((1-(6-((1S,2S)-4,4-difluoro-6-hydroxy-2-phenyl-1,2,3,4-tetrahydronaphthalen-1-yl)pyridin-3-yl)piperidin-4-yl)methyl)piperazin-1-yl)-1-oxoisoindolin-2-yl)piperidine-2,6-dione] | 0.23 |
| O=C1CC[C@H](N2Cc3cc(N4CCN(CC5CCN(c6ccc([C@H]7c8ccc(O)cc8C(F)(F)C[C@H]7c7ccc(C(F)(F)F)cc7)cc6)CC5)CC4)ccc3C2=O)C(=O)N1 [Compound I-330, (S)-3-(5-(4-((1-(4-((1S,2R)-4,4-difluoro-6-hydroxy-2-(4-(trifluoromethyl)phenyl)-1,2,3,4-tetrahydronaphthalen-1-yl)phenyl)piperidin-4-yl)methyl)piperazin-1-yl)-1-oxoisoindolin-2-yl)piperidine-2,6-dione] | 35 |
| O=C1CC[C@H](N2Cc3cc(N4CCN(C[C@H]5CCN(c6ccc([C@@H]7c8ccc(O)cc8CC[C@@H]7c7ccccc7)cc6)C5)CC4)ccc3C2=O)C(=O)N1 (single isomer, unassigned) [II-13] | 18 |
| C[C@@H]1C[C@H](CN2CCN(c3ccc4c(c3)CN(C3CCC(=O)NC3=O)C4=O)CC2)CCN1c1ccc([C@@H]2c3ccc(O)cc3CC[C@@H]2c2ccccc2)cc1 (single isomer, unassigned) [II-48] | 1 |
| O=C1CCC(N2Cc3cc(C4=CCN(CC5CCN(c6ccc([C@@H]7c8ccc(O)cc8CC[C@@H]7c7ccccc7)cc6)CC5)CC4)ccc3C2=O)C(=O)N1 (stereo partly drawn) [II-104] | 22 |
| Cn1ccc([C@@H]2CCc3cc(O)ccc3[C@@H]2c2ccc(N3CCC(CN4CCN(c5ccc6c(c5)CN([C@H]5CCC(=O)NC5=O)C6=O)CC4)CC3)cc2)n1 (single isomer, unassigned) [Compound I-29] | 0.14 |
| O=C1CCC(n2ncc3cc(N4CCN(CC5CCN(c6ccc([C@@H]7c8ccc(O)cc8CO[C@@H]7c7ccccc7)cc6)CC5)CC4)ccc32)C(=O)N1 (stereo partly drawn) [Compound I-398, 3-(5-(4-((1-(4-((3S,4R)-7-hydroxy-3-phenylisochroman-4-yl)phenyl)piperidin-4-yl)methyl)piperazin-1-yl)-1H-indazol-1-yl)piperidine-2,6-dione] | 0.83 |
| CC(C)c1ccccc1[C@H]1OCc2cc(O)ccc2[C@H]1c1ccc(N2CCC(CN3CCN(c4ccc5c(c4)CN([C@H]4CCC(=O)NC4=O)C5=O)CC3)CC2)cc1 [Compound I-351, (S)-3-(5-(4-((1-(4-((3S,4R)-7-hydroxy-3-(2-isopropylphenyl)isochroman-4-yl)phenyl)piperidin-4-yl)methyl)piperazin-1-yl)-1-oxoisoindolin-2-yl)piperidine-2,6-dione] | 0.2 |
